The record followed here is PubChem BioAssay (NCI).

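Grown in 96-well plates, cells were treated for 48 hours with each compound at five concentrations. Insufficient inhibition: endpoint recorded as highest concentration tested. At the TGI there is no net growth.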

Some test systems named below: HCT-15 colon; HOP-92 NSCLC; IGROV1 ovarian; M14 melanoma; NCI-H522 lung; OVCAR-3 ovarian; OVCAR-5 ovarian; OVCAR-8 ovarian; SF-295 CNS; SK-MEL-28 melanoma; SW-620 colon; TK-10 renal.
Assay in all cases: growth of human tumour cells (NCI), 48 h

As to `CCN(CC)P1(=S)Oc2ccc3ccccc3c2-c2c(ccc3ccccc23)O1`, the TGI with HCT-15 colon, with HOP-92 NSCLC, in the experiment with IGROV1 ovarian, in the experiment on M14 melanoma, in the experiment with NCI-H522 lung and with OVCAR-3 ovarian was over 100 µM in each case. Moreover, the TGI in the experiment with OVCAR-5 ovarian, with OVCAR-8 ovarian, with SF-295 CNS, in the experiment with SK-MEL-28 melanoma, in the experiment with SW-620 colon and with TK-10 renal was over 100 µM throughout.

As for `CCOC(=O)c1c(OCC)[nH]c(=O)c(C(c2ccc(F)cc2)c2c(O)c(C(=O)OCC)c(OCC)[nH]c2=O)c1O`, the TGI in the experiment with HCT-15 colon is 40.4 µM; in the experiment on HOP-92 NSCLC, 18.1 µM; in the experiment with IGROV1 ovarian it was 30.3 µM; in the experiment with M14 melanoma it was 63.3 µM; in the experiment with NCI-H522 lung, 42 µM; in the experiment on OVCAR-3 ovarian, 39.7 µM. Also, the TGI was over 100 µM with OVCAR-5 ovarian; 28.1 µM in the experiment on OVCAR-8 ovarian; 49.8 µM in the experiment on SF-295 CNS; 27 µM in the experiment with SK-MEL-28 melanoma; 51.1 µM in the experiment on SW-620 colon; 67.7 µM in the experiment with TK-10 renal.

As to `Cc1ccc(S(=O)/C=C(\NC(=O)OCc2ccccc2)C(F)(F)F)cc1` (centres undefined), the TGI in the experiment on HCT-15 colon, in the experiment with HOP-92 NSCLC, in the experiment with IGROV1 ovarian, in the experiment with M14 melanoma, with NCI-H522 lung and with OVCAR-3 ovarian was over 100 µM each time. The TGI with OVCAR-5 ovarian is over 100 µM; in the experiment with OVCAR-8 ovarian, over 100 µM; in the experiment with SF-295 CNS it was over 100 µM; with SK-MEL-28 melanoma, 72 µM; in the experiment with SW-620 colon, over 100 µM; with TK-10 renal, over 100 µM.

As to `N=C(/C=C/c1ccc(-c2cn3cc(/C=C/C(=N)N4CCOCC4)ccc3n2)cc1)N1CCOCC1`, the TGI in the experiment on HCT-15 colon, with HOP-92 NSCLC, with IGROV1 ovarian, in the experiment on M14 melanoma, in the experiment with NCI-H522 lung and with OVCAR-3 ovarian was over 100 µM throughout. Besides, the TGI with OVCAR-5 ovarian, in the experiment on OVCAR-8 ovarian, with SF-295 CNS, in the experiment with SK-MEL-28 melanoma, in the experiment on SW-620 colon and with TK-10 renal was over 100 µM in each case.

For `Cc1ccc(S(=O)(=O)OC2CN3CCC2CC3)cc1` (centres undefined), the TGI in the experiment on HCT-15 colon, in the experiment with HOP-92 NSCLC, in the experiment with IGROV1 ovarian, with M14 melanoma, with NCI-H522 lung and in the experiment with OVCAR-3 ovarian was over 100 µM throughout. The TGI in the experiment with OVCAR-5 ovarian, with OVCAR-8 ovarian, in the experiment with SF-295 CNS, in the experiment on SK-MEL-28 melanoma, in the experiment on SW-620 colon and with TK-10 renal was over 100 µM each time.

On to `CCc1nnc2sc(-c3ccc(-c4ccc(Cl)cc4Cl)o3)nn12`, for which the TGI with HCT-15 colon, with HOP-92 NSCLC, with IGROV1 ovarian, in the experiment with M14 melanoma, with NCI-H522 lung and with OVCAR-3 ovarian was over 100 µM in each case. For the same compound, the TGI with OVCAR-5 ovarian, in the experiment with OVCAR-8 ovarian, in the experiment on SF-295 CNS, in the experiment with SK-MEL-28 melanoma, with SW-620 colon and in the experiment on TK-10 renal was over 100 µM each time.

As for `CC(C)=NN/C(=N\S(=O)(=O)c1cc(Cl)c(Oc2ccc([N+](=O)[O-])cc2Cl)c(Cl)c1)Nc1ccc(Cl)cc1`, the TGI in the experiment on HCT-15 colon, in the experiment on HOP-92 NSCLC, in the experiment with IGROV1 ovarian, in the experiment on M14 melanoma, in the experiment with NCI-H522 lung and in the experiment on OVCAR-3 ovarian was over 100 µM each time. In addition, the TGI in the experiment with OVCAR-5 ovarian, in the experiment on OVCAR-8 ovarian, with SF-295 CNS, in the experiment on SK-MEL-28 melanoma, with SW-620 colon and in the experiment on TK-10 renal was over 100 µM throughout.

In the case of `C(=N\NC1=NCCCN1)/c1ccc(-c2cn3cc(/C=N/NC4=NCCCN4)ccc3n2)cc1`, the TGI in the experiment on HCT-15 colon, in the experiment on HOP-92 NSCLC, in the experiment with IGROV1 ovarian, in the experiment with M14 melanoma, with NCI-H522 lung and with OVCAR-3 ovarian was over 100 µM throughout. Further, the TGI was over 100 µM with OVCAR-5 ovarian; over 89 µM with OVCAR-8 ovarian; over 100 µM in the experiment with SF-295 CNS; over 100 µM in the experiment on SK-MEL-28 melanoma; over 100 µM in the experiment with SW-620 colon; over 100 µM in the experiment on TK-10 renal.

For the compound `Cc1c(Cl)cccc1NC(=O)C(=O)C1C(=O)NC(=O)NC1=O`, the TGI in the experiment on HCT-15 colon, in the experiment on HOP-92 NSCLC, in the experiment on IGROV1 ovarian, in the experiment with M14 melanoma, in the experiment with NCI-H522 lung and in the experiment on OVCAR-3 ovarian was over 100 µM each time. Further, the TGI with OVCAR-5 ovarian, in the experiment with OVCAR-8 ovarian, in the experiment on SF-295 CNS, in the experiment on SK-MEL-28 melanoma, in the experiment with SW-620 colon and in the experiment with TK-10 renal was over 100 µM each time.

As to `Cc1ccc(Nc2ncnc3sc(SCc4ccccc4)nc23)cc1`, the TGI in the experiment with HCT-15 colon, in the experiment with HOP-92 NSCLC, in the experiment with IGROV1 ovarian, with M14 melanoma, in the experiment on NCI-H522 lung and with OVCAR-3 ovarian was over 100 µM in each case. The TGI in the experiment with OVCAR-5 ovarian, in the experiment on OVCAR-8 ovarian, in the experiment on SF-295 CNS, in the experiment with SK-MEL-28 melanoma, in the experiment on SW-620 colon and in the experiment with TK-10 renal was over 100 µM in each case.

For `C=C(C)C1CC2=C(C(=O)OC)C=C(O2)C(C(=C)C)[C@@H]2OC(=O)/C(=C\C1O)[C@H]2N(C)C` (some centres undefined), the TGI in the experiment with HCT-15 colon is 22.5 µM; in the experiment with HOP-92 NSCLC it was 20.2 µM; in the experiment with IGROV1 ovarian, 20.9 µM; in the experiment with M14 melanoma it was 29.7 µM; in the experiment with NCI-H522 lung, 10.3 µM; in the experiment on OVCAR-3 ovarian, 25.7 µM. Besides, the TGI with OVCAR-5 ovarian was determined as 38 µM; in the experiment with OVCAR-8 ovarian it was 25.8 µM; in the experiment on SF-295 CNS, 32 µM; in the experiment on SK-MEL-28 melanoma it was 27.8 µM; in the experiment with SW-620 colon, 30.3 µM; in the experiment on TK-10 renal, 15.7 µM.

Turning to `S=C1c2cc(Cl)ccc2NC(=NC2CCCC2)C2CSCN12` (centres undefined), the TGI in the experiment with HCT-15 colon, with HOP-92 NSCLC, in the experiment on IGROV1 ovarian, in the experiment on M14 melanoma, in the experiment on NCI-H522 lung and in the experiment with OVCAR-3 ovarian was over 100 µM each time. Also, the TGI with OVCAR-5 ovarian, in the experiment with OVCAR-8 ovarian, in the experiment on SF-295 CNS, in the experiment with SK-MEL-28 melanoma, in the experiment with SW-620 colon and in the experiment on TK-10 renal was over 100 µM each time.
